This is an account of results in US10059689B2, “Substituted heteroaryl compounds and methods of use” (Sunshine Lake Pharma Co., Ltd., priority 2014, dated 2018).

As a reminder, the IC50 is the midpoint of a concentration-inhibition curve. A high value points to lower potency.

Assay [1] addresses T1, TYK2 (h) (Homo sapiens, UniProt P29597).
T1 construct: purchased Millipore UK Ltd (contract assay service)
Description: TYK2 (h) kinase assay. Type of assay: biochemical. Here is the method: Kinase assays can be performed by measurement of incorporation of γ-33P ATP into immobilized myelin basic protein (MBP). High binding white 384 well plates (Greiner) are coated with MBP (Sigma #M-1891) by incubation of 60 μL/well of 20 μg/mL MBP in Tris-buffered saline (TBS; 50 mM Tris pH 8.0, 138 mM NaCl, 2.7 mM KCl) for 24 h at 4° C. Plates are washed 3× with 100 μL TBS. Kinase reactions are carried out in a total volume of 34 μL in kinase buffer (according to the need to make, for example, 5 mM Hepes pH 7.6, 15 mM NaCl, 0.01% bovine gamma globulin (Sigma #I-5506), 10 mM MgCl2, 1 mM DTT, 0.02% TritonX-100). Compound dilutions are performed in DMSO and added to assay wells to a final DMSO concentration of 1%. Each data point is measured in duplicate, and at least two duplicate assays are performed for each individual compound determination. […] A mixture of unlabeled ATP and γ-33P ATP is added to start the reaction (2×10^6 cpm of γ-33P ATP per well (3000 Ci/mmole) and 10 μM unlabeled ATP, typically. The reactions are carried out for 1 h at room temperature with shaking Plates are washed 7× with TBS, followed by the addition of 50 μL/well scintillation fluid (Wallac). Plates are read using a Wallac Trilux counter. This is only one format of such assays; various other formats are possible, as known to one skilled in the art. […]

The target in assay [2] is T2, Aurora-A (h) (Homo sapiens, UniProt O14965).
T2 construct: purchased Millipore UK Ltd (contract assay service)
T2 sequence (O14965 1-403): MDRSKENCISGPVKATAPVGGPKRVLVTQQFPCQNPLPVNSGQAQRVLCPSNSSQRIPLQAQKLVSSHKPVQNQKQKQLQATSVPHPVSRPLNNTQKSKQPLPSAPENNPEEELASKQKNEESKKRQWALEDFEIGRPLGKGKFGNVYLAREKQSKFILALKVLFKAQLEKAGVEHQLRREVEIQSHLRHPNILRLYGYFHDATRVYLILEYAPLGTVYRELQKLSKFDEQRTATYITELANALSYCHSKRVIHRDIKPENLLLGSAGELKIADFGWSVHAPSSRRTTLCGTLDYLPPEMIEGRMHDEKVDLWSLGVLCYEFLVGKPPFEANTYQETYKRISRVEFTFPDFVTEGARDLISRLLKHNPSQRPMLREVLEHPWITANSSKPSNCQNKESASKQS
Nature of the assay: Aurora-A (h) kinase assay. Type of assay: biochemical. The procedure: Kinase assays can be performed by measurement of incorporation of γ-33P ATP into immobilized myelin basic protein (MBP). High binding white 384 well plates (Greiner) are coated with MBP (Sigma #M-1891) by incubation of 60 μL/well of 20 μg/mL MBP in Tris-buffered saline (TBS; 50 mM Tris pH 8.0, 138 mM NaCl, 2.7 mM KCl) for 24 h at 4° C. Plates are washed 3× with 100 μL TBS. Kinase reactions are carried out in a total volume of 34 μL in kinase buffer (according to the need to make, for example, 5 mM Hepes pH 7.6, 15 mM NaCl, 0.01% bovine gamma globulin (Sigma #I-5506), 10 mM MgCl2, 1 mM DTT, 0.02% TritonX-100). Compound dilutions are performed in DMSO and added to assay wells to a final DMSO concentration of 1%. Each data point is measured in duplicate, and at least two duplicate assays are performed for each individual compound determination. Enzyme is added to final concentrations of 10 nM or 20 nM, for example. A mixture of unlabeled ATP and γ-33P ATP is added to start the reaction (2×10^6 cpm of γ-33P ATP per well (3000 Ci/mmole) and 10 μM unlabeled ATP, typically. The reactions are carried out for 1 h at room temperature with shaking Plates are washed 7× with TBS, followed by the addition of 50 μL/well scintillation fluid (Wallac). Plates are read using a Wallac Trilux counter. This is only one format of such assays; various other formats are possible, as known to one skilled in the art.
The above assay procedure can be used to determine the IC50 for inhibition and/or the inhibition constant, Ki. The IC50 is defined as the concentration of compound required to reduce the enzyme activity by 50% under the condition of the assay. The IC50 value is estimated by preparing a 10 point curve using a ½ log dilution series (for example, a typical curve may be prepared using the following compound concentrations: 3 μM, 1 μM, 0.3 μM, 0.1 μM, 0.03 μM, 0.01 μM, 0.003 μM, 0.001 μM, 0.0003 μM and 0 μM).
Aurora-A (h) is incubated with 8 mM MOPS pH 7.0, 0.2 mM EDTA, 200 μM LRRASLG (Kemptide), 10 mM MgAcetate and [γ-^33P-ATP] […]

SMILES strings stand for the structures.

T1 sequence (P29597 whole entry): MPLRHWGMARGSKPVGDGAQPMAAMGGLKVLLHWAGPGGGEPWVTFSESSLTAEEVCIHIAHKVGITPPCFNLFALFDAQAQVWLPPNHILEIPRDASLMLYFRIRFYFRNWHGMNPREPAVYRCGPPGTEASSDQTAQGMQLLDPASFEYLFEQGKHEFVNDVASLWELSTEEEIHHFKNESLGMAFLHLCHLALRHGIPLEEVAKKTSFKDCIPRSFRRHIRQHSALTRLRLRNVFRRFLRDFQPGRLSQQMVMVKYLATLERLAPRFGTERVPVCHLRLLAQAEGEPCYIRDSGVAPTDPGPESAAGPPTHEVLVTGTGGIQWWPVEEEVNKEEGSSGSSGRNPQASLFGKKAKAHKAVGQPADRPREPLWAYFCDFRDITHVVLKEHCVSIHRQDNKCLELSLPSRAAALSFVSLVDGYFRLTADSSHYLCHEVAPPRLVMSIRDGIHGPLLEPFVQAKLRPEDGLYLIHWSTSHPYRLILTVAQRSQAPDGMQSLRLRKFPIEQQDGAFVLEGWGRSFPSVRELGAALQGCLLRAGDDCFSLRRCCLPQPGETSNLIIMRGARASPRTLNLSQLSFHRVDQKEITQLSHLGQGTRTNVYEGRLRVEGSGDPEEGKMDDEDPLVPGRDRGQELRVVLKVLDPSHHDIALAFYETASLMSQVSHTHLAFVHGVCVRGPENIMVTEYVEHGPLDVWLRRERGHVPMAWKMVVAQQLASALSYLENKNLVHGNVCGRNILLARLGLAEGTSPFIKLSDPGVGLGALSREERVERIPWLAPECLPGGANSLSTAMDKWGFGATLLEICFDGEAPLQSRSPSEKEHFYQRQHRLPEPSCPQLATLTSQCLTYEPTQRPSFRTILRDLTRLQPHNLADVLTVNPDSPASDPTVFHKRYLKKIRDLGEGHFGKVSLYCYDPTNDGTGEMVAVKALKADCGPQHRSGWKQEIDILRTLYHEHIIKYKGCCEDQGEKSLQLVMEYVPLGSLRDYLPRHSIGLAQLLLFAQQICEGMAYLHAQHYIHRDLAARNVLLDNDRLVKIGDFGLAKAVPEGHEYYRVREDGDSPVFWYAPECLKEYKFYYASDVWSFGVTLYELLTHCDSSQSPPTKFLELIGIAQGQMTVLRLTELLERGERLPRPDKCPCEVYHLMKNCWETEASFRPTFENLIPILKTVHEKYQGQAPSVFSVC

On to `Cc1c2ccc(Nc3ncc(Cl)c(NC4CCN(c5ccc(C#N)cn5)CC4)n3)cc2nn1C` [Ex. 4], for which the IC50 in assay [1] amounted to 0.002 µM; in assay [2], 0.503 µM.

In the case of `Cn1cc(Nc2ncc(Cl)c(NC3CCN(c4ccc(C#N)cn4)CC3)n2)cn1` [Ex. 1, 6-(4-((5-chloro-2-((1-methyl-1H-pyrazol-4-yl)amino)pyrimidin-4-yl)amino)piperidin-1-yl)nicotinonitrile], in assay [2], half-maximal inhibition (IC50) was put at 0.068 µM.

Regarding `CN(c1nc(Nc2cnn(C)c2)ncc1Cl)C1CCN(c2ccc(C#N)cn2)CC1` [Ex. 5, 6-(4-((5-chloro-2-((1-methyl-1H-pyrazol-4-yl)amino)pyrimidin-4-yl) (methyl)amino)piperidin-1-yl)nicotinonitrile], the half-maximal inhibitory concentration (IC50) in assay [1] is 0.022 µM; in assay [2], 0.066 µM.
